In US4877779A, “2-aminomethylalkynylalkyl-1,3-dithiane derivatives” (priority 1988, dated 1989):
Structures can show the parent of a compound that is named as a salt.

What follows are compounds tested against T1, calcium channel (guinea-pig isolated ileal longitudinal smooth muscle) (Cavia porcellus, UniProt O35505) (assay: Calcium Channel Antagonist Activity in Guinea-Pig Isolated Ileal Smooth Muscle). Conditions: not given.
T1 construct: The longitudinal smooth muscle is carefully separated from the underlying circular muscle layer; from tissue; host or cells: guinea-pig ileal longitudinal smooth muscle
T1 sequence (O35505 whole entry): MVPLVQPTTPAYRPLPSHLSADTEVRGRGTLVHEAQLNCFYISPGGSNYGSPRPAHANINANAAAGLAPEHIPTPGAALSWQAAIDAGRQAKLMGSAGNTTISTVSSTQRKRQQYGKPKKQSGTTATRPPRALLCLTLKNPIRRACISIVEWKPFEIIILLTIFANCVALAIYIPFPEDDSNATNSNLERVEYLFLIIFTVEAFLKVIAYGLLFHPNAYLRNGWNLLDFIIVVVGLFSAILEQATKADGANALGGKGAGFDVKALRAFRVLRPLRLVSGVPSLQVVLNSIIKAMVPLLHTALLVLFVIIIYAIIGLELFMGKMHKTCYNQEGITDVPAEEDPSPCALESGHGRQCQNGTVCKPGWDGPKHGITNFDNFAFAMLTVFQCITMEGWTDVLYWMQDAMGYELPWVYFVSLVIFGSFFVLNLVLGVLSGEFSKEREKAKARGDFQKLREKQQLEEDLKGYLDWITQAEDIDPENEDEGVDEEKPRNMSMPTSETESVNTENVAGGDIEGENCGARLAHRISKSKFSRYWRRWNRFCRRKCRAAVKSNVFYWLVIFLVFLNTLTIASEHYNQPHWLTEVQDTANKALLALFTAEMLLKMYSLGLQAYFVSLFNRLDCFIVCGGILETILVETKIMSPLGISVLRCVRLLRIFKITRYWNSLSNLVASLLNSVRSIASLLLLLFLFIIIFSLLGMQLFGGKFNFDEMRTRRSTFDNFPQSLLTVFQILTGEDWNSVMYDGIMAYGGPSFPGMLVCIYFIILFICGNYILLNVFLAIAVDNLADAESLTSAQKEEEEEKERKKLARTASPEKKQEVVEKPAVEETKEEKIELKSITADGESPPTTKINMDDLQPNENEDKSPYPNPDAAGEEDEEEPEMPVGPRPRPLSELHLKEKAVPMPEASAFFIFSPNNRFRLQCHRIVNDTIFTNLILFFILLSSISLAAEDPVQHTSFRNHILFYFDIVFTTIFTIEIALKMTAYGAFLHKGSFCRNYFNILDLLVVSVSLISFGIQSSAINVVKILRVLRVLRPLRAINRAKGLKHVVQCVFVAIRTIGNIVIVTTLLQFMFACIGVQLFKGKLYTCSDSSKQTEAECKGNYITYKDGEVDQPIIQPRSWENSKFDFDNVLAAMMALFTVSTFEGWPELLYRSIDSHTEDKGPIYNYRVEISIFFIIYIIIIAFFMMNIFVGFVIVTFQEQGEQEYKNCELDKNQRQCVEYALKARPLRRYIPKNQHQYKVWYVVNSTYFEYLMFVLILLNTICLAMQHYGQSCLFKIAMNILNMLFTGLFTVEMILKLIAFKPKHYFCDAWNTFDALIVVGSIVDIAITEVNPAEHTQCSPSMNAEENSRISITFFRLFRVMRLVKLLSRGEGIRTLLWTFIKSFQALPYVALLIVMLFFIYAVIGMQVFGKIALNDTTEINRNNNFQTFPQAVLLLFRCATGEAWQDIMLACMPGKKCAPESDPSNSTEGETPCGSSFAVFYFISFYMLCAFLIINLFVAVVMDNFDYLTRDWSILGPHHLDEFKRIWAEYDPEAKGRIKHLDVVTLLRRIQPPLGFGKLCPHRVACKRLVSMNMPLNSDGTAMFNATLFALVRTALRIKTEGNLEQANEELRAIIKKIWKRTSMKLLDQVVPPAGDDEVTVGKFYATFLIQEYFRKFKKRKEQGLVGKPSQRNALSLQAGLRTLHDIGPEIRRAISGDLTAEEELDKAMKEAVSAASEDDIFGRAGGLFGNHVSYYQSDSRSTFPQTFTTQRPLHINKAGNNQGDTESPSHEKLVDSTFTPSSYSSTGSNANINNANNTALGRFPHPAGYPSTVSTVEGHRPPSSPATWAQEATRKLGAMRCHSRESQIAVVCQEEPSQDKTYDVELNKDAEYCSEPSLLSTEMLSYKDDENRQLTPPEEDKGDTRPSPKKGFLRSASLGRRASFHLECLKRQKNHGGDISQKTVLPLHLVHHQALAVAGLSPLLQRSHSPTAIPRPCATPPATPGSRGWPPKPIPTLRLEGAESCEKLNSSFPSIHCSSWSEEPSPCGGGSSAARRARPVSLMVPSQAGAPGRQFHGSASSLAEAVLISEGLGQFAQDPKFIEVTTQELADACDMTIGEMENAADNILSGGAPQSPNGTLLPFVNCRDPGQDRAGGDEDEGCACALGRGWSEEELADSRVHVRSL
Type: cell-based
Text: Calcium Channel Antagonist Activity in Guinea-Pig Isolated Ileal Smooth Muscle.
Male albino guinea-pigs are sacrificed by stunning and exsanguination. The abdominal cavity is opened and the small intestine is removed, with about 10 cm of the terminal ileum being discarded. The tissue is placed in a dish containing Tyrode's solution (composition, mM: […]; KCl 2.68; NaHCO3 11.90; NaH2 PO4 0.36; MgCl2 0.98; CaCl2 1.77; dextrose 5.55), and cut into three to four segments. A glass rod (6 mm diameter) is carefully inserted into the lumen of each segment, and excess connective tissue or fat is removed. The longitudinal smooth muscle is carefully separated from the underlying circular muscle layer by gently stroking a moist cotton swab on a tangent to shallow, longitudinal incisions made parallel to the mesenteric attachment. Using gentle traction, and taking care to keep the segment moist at all times, the preparation is stripped from the remaining length of the ileal segment (Paton & Zar, J. Physiol. 194, 13; 1968).
Each preparation is suspended in a 10 mL jacketed glass tissue bath containing Tyrode's solution maintained at 37° C. and gassed with 5% CO2 in O2. The preparation is attached by silk thread to a force-displacement transducer. […] The initial resting tension is adjusted to 0.5 g and the preparation equilibrated for 55 minutes prior to experimentation. At the end of this period, the bathing solution is replaced with Ca^2+ -free Tyrode's solution. This solution is prepared by omitting CaCl2. The preparation is washed four times in Ca^2+ -free Tyrode 's to remove any Ca^2+ remaining in the bath, and allowed to equilibrate for a further 20 minutes.
Concentration-response curves to CaCl2 are obtained using the following procedure. Preparations are exposed to a depolarizing concentration of KCl (80 mM) for 6 minutes. At the end of this period CaCl2 is added to the bath cumulatively in the concentration range 0.2-8.0 mM. Successive additions of each Ca^2+ concentration are carried out only when the previous response has reached a plateau. When the maximum response has been attained the bath is again washed (five times) with Ca^2+ -free buffer, and the preparation re-equilibrated for approximately 15 minutes. A second Ca^2+ concentration-response curve is then obtained in the same manner. This second curve serves as control for that tissue.
Further curves are obtained in the presence of increasing concentrations of the test drugs. Where appropriate, the test drug is added to the bath immediately following addition of KCl, and 6 minutes later the concentration-response curve to Ca^2+ is obtained. Each test preparation is exposed to three different concentrations of a test drug.
For each ileal preparation, the control EC50 for Ca^2+ (the concentration producing 50% of the maximum response) is determined from the control concentration-response curve. Calcium blocking activity is defined as a Kb value (the concentration producing a two-fold dextral shift in the control curve), calculated from EC50 ratios in the absence and presence of test drugs.
`CCN(C)CC#CCCC1(C2(O)c3ccccc3-c3ccccc32)SCCCS1` [2-(5-Ethylmethylaminopent-3-ynyl)-2-(9-hydroxy-9H-fluoren-9-yl)-1,3-dithiane] showed a Kb of 1.23 ± 0.47 µM.

Same assay, conditions: Kb = concentration producing a two-fold dextral shift in the control CaCl2 concentration-response curve; KCl (80 mM) depolarized ileal smooth muscle; read-out: Calcium antagonist Kb
`CCN(CC)CC#CCCC1(C(O)(c2ccccc2)c2ccccc2)SCCCS1` [2-(5-Diethylaminopent-3-ynyl)-2-(α-hydroxy-α-phenylbenzyl)-1,3-dithiane Oxalate] gave a Kb of 0.98 ± 0.16 µM. Work on `C(#CCN1CCCCC1)CCC1SCCCS1` [2-(5-Piperidinylpent-3-ynyl)-1,3-dithiane Oxalate] yielded a Kb of over 10 µM. Work on `COc1ccc(CCN(C)CC#CCC2(c3ccccc3)SCCCS2)cc1OC` [2-[4-[2-(3,4-dimethoxyphenyl)ethyl]methylaminobut-2-ynyl]-2-phenyl-1,3-dithiane oxalate] yielded a Kb of 1.17 ± 0.35 µM. `CN(CC#CCCC1(C(O)(c2ccccc2)c2ccccc2)SCCCS1)Cc1ccccc1` [2-[5-(Benzylmethylaminopent-3-ynyl]-2-(α-hydroxy-α-phenylbenzyl)-1,3-dithiane Oxalate Hemihydrate] gave a Kb of 3.17 ± 0.76 µM. Work on `CCN(CC)CC#CCCC1(C(c2ccccc2)c2ccccc2)SCCCS1` [2-(5-Diethylaminopent-3-ynyl)-2-benzhydryl-1,3-dithiane Oxalate Hydrate] yielded a Kb of 0.5 µM. In the case of `CN(CC#CCCC1(C(O)(c2ccccc2)c2ccccc2)SCCCS1)CCCc1ccccc1` [2-[5-(3-Phenylpropyl)methylaminopent-3-ynyl]-2-(9-hydroxy-9-phenylbenzyl)-1,3-dithiane Oxalate], the Kb is reported as 1.63 ± 0.88 µM. With `CCN(CC)CC#CCCCC1SCCCS1` [2-(6-Diethylaminohex-4-ynyl)-1,3-dithiane Oxalate] the Kb was over 10 µM. With `CN(CC#CCCC1SCCCS1)CCCCc1ccccc1` [2-[5-(4-Phenylbutyl)methylaminopent-3-ynyl]-1,3-dithiane Oxalate] the Kb was 3.43 ± 0.83 µM. `CN(C)CC#CCCC1SCCCS1` [2-(5-Dimethylaminopent-3-ynyl)-1,3-dithiane Oxalate] gave a Kb of over 10 µM. `CCN(CC)CC#CCCC1(C(O)(c2ccccc2)C2CCCC2)SCCCS1` (stereo not drawn) [2-(5-Diethylaminopent-3-ynyl)-2-(α-cyclopentyl-α-hydroxybenzyl-1,3-dithiane Oxalate] gave a Kb of 0.5 µM. For `CCN(CC)CC#CCCC1SCCCS1` [2-(5-Diethylaminopent-3-ynyl)-1,3-dithiane Oxalate], the Kb was over 10 µM. In the case of `CN1CCN(CC#CCCC2SCCCS2)CC1` [2-[5-(4-Methylpiperazinyl)pent-3-ynyl]-1,3-dithiane Dioxalate], the Kb is reported as over 10 µM. In the case of `CCN(CC)CC#CCCC1(C2(O)CCOc3ccccc32)SCCCS1` (centres unmarked) [2(5-Diethylaminopent-3-ynyl)-2-(4-hydroxy-4H-chromanyl)-1,3-dithiane], the Kb is reported as 1.94 ± 0.21 µM. In the case of `CCN(CC)CC#CCCC1(c2ccccc2)SCCCS1` [2-(5-Diethylaminopent-3-ynyl)-2-phenyl-1,3-dithiane Oxalate], the Kb is reported as 0.9 ± 0.3 µM. `CN(CC#CCCC1(C(O)(c2ccccc2)c2ccccc2)SCCCS1)CCc1ccccc1` [2-[5-(2-Phenylethyl)methylaminopent-3-ynyl]-2-(α-hydroxy-α-phenylbenzyl)-1,3-dithiane Oxalate Hemihydrate] showed a Kb of 2.65 ± 1.21 µM. Work on `C(#CCN1CCCC1)CCC1SCCCS1` [2-(5-Pyrrolidinylpent-3-ynyl)-1,3-dithiane Oxalate] yielded a Kb of over 10 µM. With `CN(C)CC#CCCC1(C2(O)c3ccccc3-c3ccccc32)SCCCS1` [2-(5-Dimethylaminopent-3-ynyl)-2-(9-hydroxy-9H-fluoren-9-yl)-1,3-dithiane] the Kb was 1.81 ± 0.39 µM. `OC1(C2(CCC#CCN3CCCCC3)SCCCS2)c2ccccc2Sc2ccc(Cl)cc21` (centres unmarked) [2-(5-Piperidinylpent-3-ynyl)-2-(2-chloro-9-hydroxy-9H-thioxanthen-9-yl)-1,3-dithiane] showed a Kb of 6.09 ± 1.56 µM. Work on `CN(CC#CCCC1SCCCS1)CCc1ccccc1` [2-[5-(2-Phenylethyl)methylaminopent-3-ynyl]-1,3-dithiane Oxalate] yielded a Kb of 2.27 ± 0.73 µM. `CN(CC#CCCCC1SCCCS1)Cc1ccccc1` [2-(6-Benzylmethylaminohex-4-ynyl)-1,3-dithiane Oxalate] showed a Kb of 4.45 ± 0.16 µM. Work on `OC1(C2(CCC#CCN3CCCCC3)SCCCS2)c2ccccc2-c2ccccc21` [2-(5-Piperidinylpent-3-ynyl)-2-(9-hydroxy-9H-fluoren-9-yl)-1,3-dithiane] yielded a Kb of 1 ± 0.07 µM. For `OC1(C2(CCC#CCN3CCCCC3)SCCCS2)c2ccccc2Sc2ccccc21` [2-(5-Piperidinylpent-3-ynyl)-2-(9-hydroxy-9H-thioxanthen-9-yl)-1,3-dithiane], the Kb was 3.66 ± 2.04 µM. Compound `CCN(CC)CC#CCCCC1(C2(O)c3ccccc3Oc3ccccc32)SCCCS1` [2-(6-Diethylaminohex-4-ynyl)-2-(9-hydroxy-9H-xanthen-9-yl)-1,3-dithiane] has a Kb of 0.17 ± 0.02 µM. `CCN(CC)CC#CCCC1(C2(O)CCCc3ccccc32)SCCCS1` (centres unmarked) [2-(5-Diethylaminopent-3-ynyl)-2-(1-hydroxy-1,2,3,4-tetrahydro-1-naphthyl)-1,3-dithiane Hemioxalate] gave a Kb of 0.83 ± 0.02 µM. In the case of `COc1ccc(CCN(C)CC#CCCC(O)(c2ccccc2)C2SCCCS2)cc1OC` (centres unmarked) [2[6-[2-(3,4-dimethoxyphenyl)ethyl]methylamino-1-hydroxy-1-phenylhex-4-ynyl]-1,3-dithiane], the Kb is reported as 1.23 ± 0.53 µM. `CCN(CC)CC#CCCC1(C2(O)c3ccccc3C=Cc3ccccc32)SCCCS1` [2-(5-Diethylaminopent-3-ynyl)-2-(5-hydroxy-5H-dibenzo[a,d]cyclohepten-5-yl)-1,3-dithiane Oxalate] gave a Kb of 0.3 µM. `OCCN1CCN(CC#CCCC2SCCCS2)CC1` [2-[5-[4-(2-Hydroxyethyl)piperazinyl]pent-3-ynyl]-1,3-dithiane Dioxalate] was tested, and the Kb was over 10 µM. `CCCN(CC#CCCCC1(C2(O)c3ccccc3Oc3ccccc32)SCCCS1)CCC` [2-(6-Dipropylaminohex-4-ynyl)-2-(9-hydroxy-9H-xanthen-9-yl)-1,3-dithiane] was tested, and the Kb was 0.47 ± 0.15 µM. Work on `CN(CC#CCCC1(C2(O)c3ccccc3Sc3ccccc32)SCCCS1)CCCc1ccccc1` [2-[5-(3-Phenylpropyl)methylaminopent-3-ynyl]-2-(9-hydroxy-9H-thioxanthen-9-yl)-1,3-dithiane] yielded a Kb of 4.16 ± 0.86 µM. Compound `CCN(C)CC#CCCC1(C2(O)c3ccccc3Sc3ccc(Cl)cc32)SCCCS1` (centres unmarked) [2-(5-Ethylmethylaminopent-3-ynyl)-2-(2-chloro-9-hydroxy-9H-thioxanthen-9-yl)-1,3-dithiane] has a Kb of 2.53 ± 1.03 µM. Compound `CN(CC#CCCC1(C2(O)c3ccccc3Oc3ccccc32)SCCCS1)CCCc1ccccc1` [2-[5-(3-Phenylpropyl)methylaminopent-3-ynyl]-2-(9-hydroxy-9H-xanthen-9-yl)-1,3-dithiane] has a Kb of 3.09 ± 0.99 µM. `CN(C)CC#CCCC1(C2(O)c3ccccc3Oc3ccccc32)SCCCS1` [2-(5-Dimethylaminopent-3-ynyl)-2-(9-hydroxy-9H-xanthen-9-yl)-1,3-dithiane] showed a Kb of 1.15 ± 0.2 µM. `CN(C)CC#CCCC1(C2(O)c3ccccc3Sc3ccccc32)SCCCS1` [2-(5-Dimethylaminopent-3-ynyl)-2-(9-hydroxy-9H-thioxanthen-9-yl)-1,3-dithiane] showed a Kb of 0.68 ± 0.13 µM. Work on `CN(CC#CCCC1SCCCS1)Cc1ccccc1` [2-[5-(Benzylmethylaminopent-3-ynyl]-1,3-dithiane Oxalate] yielded a Kb of 8.02 ± 2.74 µM. Compound `CN(CC#CCCC1(c2ccccc2)SCCCS1)CCc1ccccc1` [2-[5-(2-Phenylethyl)methylaminopent-3-ynyl]-2-phenyl-1,3-dithiane Oxalate] has a Kb of 1.74 ± 1.08 µM. `CCCN(CC#CCC1(c2ccccc2)SCCCS1)CCC` [2-(4-Dipropylaminobut-2-ynyl)-2-phenyl-1,3-dithiane, Oxalate] gave a Kb of 1.01 ± 0.15 µM. For `CCN(C)CC#CCCC1(C2(O)c3ccccc3Sc3ccccc32)SCCCS1` [2-(5-Ethylmethylaminopent-3-ynyl)-2-(9-hydroxy-9H-thioxanthen-9-yl)-1,3-dithiane], the Kb was 0.57 ± 0.12 µM. Work on `CCN(C)CC#CCCC1SCCCS1` [2-(5-Ethylmethylaminopent-3-ynyl)-1,3-dithiane Oxalate] yielded a Kb of over 10 µM. `CN(CC#CCCC1SCCCS1)Cc1cccc2ccccc12` [2-[5-(1-Naphthylmethyl)methylaminopent-3-ynyl]-1,3-dithiane Oxalate] was tested, and the Kb was over 10 µM. With `CCCN(CC#CCCCC1(C2(O)c3ccccc3Sc3ccccc32)SCCCS1)CCC` [2-(6-Dipropylaminohex-4-ynyl)-2-(9-hydroxy-9H-thioxanthen-9-yl)-1,3-dithiane] the Kb was 0.77 µM.
